Measurements taken from ChEMBL document CHEMBL1201862, “PubChem BioAssay data set” (2004).
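Where inhibition never reached the appropriate level, the endpoint shown equals the highest concentration tested. Otherwise, values were interpolated linearly from a five-concentration, 48-hour dose response in 96-well plates. GI50 is the concentration that inhibits growth by half.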 Active and inactive are the calls of the source. Cut-off read from the data, not from the text of the source: active = GI50 up to about 1.1 µM and inactive = higher.

Legend:
Assay in all cases: NCI tumour cell line growth inhibition, 48 h
786-0 = test system: 786-0
COLO 205 = test system: COLO 205
EKVX = test system: EKVX
HCC 2998 = test system: HCC 2998
HCT-15 = test system: HCT-15
HL-60 = test system: HL-60
HT-29 = test system: HT-29
K562 = test system: K562
M14 = test system: M14
NCI-H226 = test system: NCI-H226
NCI-H23 = test system: NCI-H23
SF-268 = test system: SF-268
SF-295 = test system: SF-295
SF-539 = test system: SF-539
SK-MEL-28 = test system: SK-MEL-28
SK-MEL-5 = test system: SK-MEL-5
SR = test system: SR
TK-10 = test system: TK-10
U-251 = test system: U-251
UO-31 = test system: UO-31

| SMILES | GI50 (786-0) | GI50 (COLO 205) | GI50 (EKVX) | GI50 (HCC 2998) | GI50 (HCT-15) | GI50 (HL-60) | GI50 (HT-29) | GI50 (K562) | GI50 (M14) | GI50 (NCI-H226) | GI50 (NCI-H23) | GI50 (SF-268) | GI50 (SF-295) | GI50 (SF-539) | GI50 (SK-MEL-28) | GI50 (SK-MEL-5) | GI50 (SR) | GI50 (TK-10) | GI50 (U-251) | GI50 (UO-31) |
| --- | --- | --- | --- | --- | --- | --- | --- | --- | --- | --- | --- | --- | --- | --- | --- | --- | --- | --- | --- | --- |
| COC1O[C@H]2CCN(C(=O)OCc3ccccc3)[C@H]2[C@H]1OCc1ccccc1 (stereo partly drawn) | > 100 µM (inactive) | 70.3 µM (inactive) | 49.2 µM (inactive) | 47.6 µM (inactive) | 36.5 µM | 28.4 µM (inactive) | 40.9 µM (inactive) | 30.5 µM (inactive) | 46.3 µM (inactive) | 78 µM (inactive) | 20.3 µM (inactive) | 50.2 µM (inactive) | 49.9 µM (inactive) | > 100 µM (inactive) | 41.2 µM (inactive) | 24.1 µM (inactive) | 30.3 µM (inactive) | > 41.4 µM (inactive) | 45.9 µM (inactive) | 29.2 µM (inactive) |
| S=c1c2nc[nH]c2ncn1CCSC1=NC=NC2=NC=NC21 (stereo not drawn) | 71 µM (inactive) | > 100 µM (inactive) | > 100 µM (inactive) | > 100 µM (inactive) | > 100 µM | > 92 µM (inactive) | > 100 µM (inactive) | 30.6 µM (inactive) | 43.8 µM (inactive) | > 100 µM (inactive) | > 100 µM (inactive) | > 100 µM (inactive) | > 100 µM (inactive) | > 84.1 µM (inactive) | > 100 µM (inactive) | > 100 µM (inactive) | 50.1 µM (inactive) | > 76.2 µM (inactive) | > 100 µM (inactive) | > 100 µM (inactive) |
| C/C(=N\NC(=O)c1ccncc1)c1sc(-n2nc(-c3ccccc3)cc2-c2ccccc2)nc1C | > 31.6 µM (inactive) | > 100 µM (inactive) | 47.8 µM (inactive) | > 31.6 µM (inactive) | > 31.6 µM | 21.5 µM (inactive) | > 100 µM (inactive) | 59.6 µM (inactive) | > 31.6 µM (inactive) | > 64.1 µM (inactive) | > 31.6 µM (inactive) | > 100 µM (inactive) | > 31.6 µM (inactive) | > 31.6 µM (inactive) | > 31.6 µM (inactive) | > 31.6 µM (inactive) | 25.5 µM (inactive) | > 31.6 µM (inactive) | > 31.6 µM (inactive) | > 31.6 µM (inactive) |
| CCCCNC(=O)OCCN=C1c2ccccc2C(Br)C(Br)c2ccccc21 (stereo not drawn) | 14.6 µM (inactive) | 20.2 µM (inactive) | 20.3 µM (inactive) | > 100 µM (inactive) | 16 µM | 9.04 µM (inactive) | 12.5 µM (inactive) | 29.9 µM (inactive) | 19.4 µM (inactive) | 76.9 µM (inactive) | 26.3 µM (inactive) | 32.3 µM (inactive) | 87.7 µM (inactive) | 29.9 µM (inactive) | 35.4 µM (inactive) | 18.7 µM (inactive) | 21.3 µM (inactive) | 25.4 µM (inactive) | 23.2 µM (inactive) | – |
| COC(=O)C1(OC(=O)Sc2ccccc2)CCN(C)CC1 | 19 µM (inactive) | 9.82 µM (inactive) | 9.1 µM (inactive) | 28.6 µM (inactive) | 34.9 µM | 5.96 µM (inactive) | 21.4 µM (inactive) | 22.4 µM (inactive) | 15.5 µM (inactive) | 13.6 µM (inactive) | 14.1 µM (inactive) | 18.4 µM (inactive) | 25.2 µM (inactive) | 10.8 µM (inactive) | 27.9 µM (inactive) | 22.6 µM (inactive) | 10.8 µM (inactive) | 41.3 µM (inactive) | 12.1 µM (inactive) | 3.79 µM (inactive) |
| CC1(O)C=CC(=O)C=C1 | 20.7 µM (inactive) | 34.8 µM (inactive) | 47.3 µM (inactive) | > 71.6 µM (inactive) | 16 µM | 16.4 µM (inactive) | 38.4 µM (inactive) | 33.5 µM (inactive) | 20.1 µM (inactive) | > 100 µM (inactive) | 30.3 µM (inactive) | 13.9 µM (inactive) | 57.1 µM (inactive) | 23.5 µM (inactive) | 18.8 µM (inactive) | > 55 µM (inactive) | 16.2 µM (inactive) | 44.1 µM (inactive) | 21.9 µM (inactive) | 36.6 µM (inactive) |
| CC1=NN(C(=O)c2ccccc2O)C(=O)/C1=C/c1ccc(O)cc1 | 0.323 µM (active) | 34.9 µM (inactive) | 1.81 µM (inactive) | 3.22 µM (inactive) | 0.485 µM | 1.02 µM (active) | 26.9 µM (inactive) | 0.0667 µM (active) | 0.351 µM (active) | 0.475 µM (active) | 0.568 µM (active) | 0.265 µM (active) | 0.379 µM (active) | 0.188 µM (active) | 52.2 µM (inactive) | 0.301 µM (active) | 0.485 µM (active) | 13 µM (inactive) | 0.205 µM (active) | 0.153 µM (active) |
| CCOC(=O)/C=C(\C(=O)OCC)n1ccc(=O)n(Cc2cnnn2CCCCOC(C)=O)c1=O | 3.46 µM (inactive) | 1.3 µM (inactive) | 11 µM (inactive) | 18.4 µM (inactive) | 3.73 µM | 2.79 µM (inactive) | 9.08 µM (inactive) | 2.37 µM (inactive) | 17.5 µM (inactive) | 17.6 µM (inactive) | 13.2 µM (inactive) | 15.6 µM (inactive) | 27.4 µM (inactive) | 2.03 µM (inactive) | 6 µM (inactive) | 13.5 µM (inactive) | 2.19 µM (inactive) | 4.54 µM (inactive) | 27.3 µM (inactive) | 21.7 µM (inactive) |
| CCOc1cc(C=O)ccc1O [ETHYL VANILLIN] | > 100 µM (inactive) | > 100 µM (inactive) | > 100 µM (inactive) | > 100 µM (inactive) | > 100 µM | > 100 µM (inactive) | > 100 µM (inactive) | > 100 µM (inactive) | > 100 µM (inactive) | > 100 µM (inactive) | > 100 µM (inactive) | > 100 µM (inactive) | > 100 µM (inactive) | > 100 µM (inactive) | > 100 µM (inactive) | > 100 µM (inactive) | 76 µM (inactive) | > 100 µM (inactive) | > 100 µM (inactive) | > 100 µM (inactive) |
| CC1CCC2C(C(=O)O[C@H]3C4CCO[C@@H](OC5OC(CO)C(O)C(O)C5O)C4[C@@]4(CO)O[C@@H]34)=CO[C@@H](OC3OC(CO)C(O)C(O)C3O)C12 (stereo partly drawn) | > 10 µM (inactive) | – | > 10 µM (inactive) | > 10 µM (inactive) | > 10 µM | > 10 µM (inactive) | > 10 µM (inactive) | > 10 µM (inactive) | > 10 µM (inactive) | > 10 µM (inactive) | > 10 µM (inactive) | > 10 µM (inactive) | > 10 µM (inactive) | > 10 µM (inactive) | > 10 µM (inactive) | > 10 µM (inactive) | > 10 µM (inactive) | > 10 µM (inactive) | > 10 µM (inactive) | > 10 µM (inactive) |
| COc1ccc(/C=C(\C2=NC(=O)CS2)c2nc3ccccc3[nH]2)cc1 | – | > 100 µM (inactive) | 38.4 µM (inactive) | < 0.01 µM (active) | 83.8 µM | > 100 µM (inactive) | > 100 µM (inactive) | 78.2 µM (inactive) | 93.1 µM (inactive) | 8.95 µM (inactive) | 69.7 µM (inactive) | > 100 µM (inactive) | 37.2 µM (inactive) | 4.6 µM (inactive) | 87.9 µM (inactive) | 37.6 µM (inactive) | > 100 µM (inactive) | > 100 µM (inactive) | 42.3 µM (inactive) | 32.7 µM (inactive) |
| N#CC(=S)Nc1ccc(F)cc1 | 53.8 µM (inactive) | 22.4 µM (inactive) | 72.3 µM (inactive) | 45.4 µM (inactive) | 88.7 µM | 30.4 µM (inactive) | 67.8 µM (inactive) | 23.9 µM (inactive) | 54.3 µM (inactive) | 78.5 µM (inactive) | 53.7 µM (inactive) | 96.8 µM (inactive) | 51.6 µM (inactive) | 38.2 µM (inactive) | 45.5 µM (inactive) | 17 µM (inactive) | 40.6 µM (inactive) | 39.1 µM (inactive) | 34.4 µM (inactive) | – |
| Fc1cccc(C2ON=C(c3ccccc3)N2C23CC4CC(CC(C4)C2)C3)c1 (stereo not drawn) | > 10 µM (inactive) | > 10 µM (inactive) | > 10 µM (inactive) | > 10 µM (inactive) | > 10 µM | > 10 µM (inactive) | > 10 µM (inactive) | > 10 µM (inactive) | > 10 µM (inactive) | > 10 µM (inactive) | > 10 µM (inactive) | > 10 µM (inactive) | > 10 µM (inactive) | > 10 µM (inactive) | > 10 µM (inactive) | > 10 µM (inactive) | 8.97 µM (inactive) | > 10 µM (inactive) | > 10 µM (inactive) | – |
| COc1cc(/C=C/C(=O)CC(=O)/C=C/c2ccc(O)c(OC)c2)ccc1O [CURCUMIN] | 3.33 µM (inactive) | 13.5 µM (inactive) | – | 3.02 µM (inactive) | 4.12 µM | 7.33 µM (inactive) | 5.09 µM (inactive) | 3.13 µM (inactive) | 3.78 µM (inactive) | 18.8 µM (inactive) | 5.6 µM (inactive) | 7.06 µM (inactive) | 8.04 µM (inactive) | 2.84 µM (inactive) | 4.5 µM (inactive) | 8.81 µM (inactive) | 3.28 µM (inactive) | 14.2 µM (inactive) | 4.72 µM (inactive) | 11.3 µM (inactive) |
| O=C1c2ccccc2C(=O)c2c1sc1nc3ccccc3n21 | 2.15 µM (inactive) | 1.8 µM (inactive) | 2.4 µM (inactive) | 1.73 µM (inactive) | 1.36 µM | 3.8 µM (inactive) | 3.9 µM (inactive) | 2.03 µM (inactive) | 1.73 µM (inactive) | 5.68 µM (inactive) | 1.29 µM (inactive) | 1.89 µM (inactive) | 1.66 µM (inactive) | 1.81 µM (inactive) | – | 16.5 µM (inactive) | 3.53 µM (inactive) | 4.19 µM (inactive) | 3.52 µM (inactive) | 2.01 µM (inactive) |
